US10781203B2, “Nontoxic compounds for the treatment and prevention of herpesvirus infections” (The Penn State Research Foundation, priority 2016, dated 2020)

System: cells
Assay: Cell viability after extended treatment (trypan blue, bright field)
Format: cell-based
Description: FIG. 3A is a growth curve analysis of HCMV (MOI=3) in untreated (WT), vehicle treated (DMSO) or Retro94-treated cells. Samples were harvested at 24, 48, 72, 96, 120 and 144 hpi. […] Nuclei labeled with DAPI (blue). Scale bars: 10 μm. FIG. 3C is a growth curve analysis of HCMV (MOI=0.05) in DMSO control (DMSO) or Retro94-treated cells. Samples were harvested at 3, 6, 9, 12 and 15 dpi. Asterisks indicate change of media with fresh Retro94. […] Bright field images of cell monolayers at 4 days post treatment are shown below graph. Brefeldin A was included as a positive control for cell death. Values in FIGS. 3A and 3C are from one representative experiment.
Normal human dermal fibroblasts, HDFs (Cell Applications Inc. 106-05N), and normal human lung fibroblasts, MRC-5 cells (ATCC CCL-171) were maintained in Dulbecco's modified Eagle's medium (DMEM) (Lonza). Human retinal pigmented epithelial cells (ARPE-19), maintained in DMEM/Ham's F12 (1:1 mix) (Lonza), human embryonic lung fibroblasts (HEL) and mouse embryonic fibroblasts (NIH 3T3), maintained in DMEM (Lonza) were obtained (Spector D J, Yetming K. Virology. 2010; 407(2):171-7; Spector D J. Virology. 2015, 476:345-54). All media was supplemented with 10% fetal bovine serum, 100 U/ml penicillin and 100 µg/ml streptomycin, and 2 mM GlutaMAX (Gibco). Cells were maintained at 37° C. with 5% CO2. […]

## Cc1nc(-c2ccc(C3N(C)c4ccccc4C(=O)N3c3ccccc3)s2)cs1 (stereo not shown) [Retro94, 1-Methyl-2-(5-(2-methylthiazol-4-yl)thiophen-2-yl)-3phenyl-2,3-dihydroquinazolin-4(1H)-one]
  effect on cell viability or cell morphology: no effect
